Results from patent publication US20190343908A1, “Therapeutic Combination for the Treatment of Cancer” (Nerium Biotechnology Inc., priority 2011, published 2019).

Columns and labels:
Type in all cases: cell-based
[1] = test system: PC3 (human prostate cancer); assay: Methyl-Tetrazolium viability assay, PC3; parameters: key: absorbance at 570 nm (optical density)
Source text: (§1) The Methyl-Tetrazolium dye assay measures the activity of enzymes in mitochondria. The dye precursor is taken up by cells, where it undergoes reduction to the purple formazan. It measures only the mitochondrial activity and, thus, it is not always a reliable indication of whether the cells themselves are alive or dead, since even a recently dead cell has […] enzyme activity in mitochondria. Intracellular glucose concentration, pH, and time before assay all affect the measurements.
(§2) The Methyl Tetrazolium, Sulforhodamine B, and Crystal Violet assays were used to assess cell viabilities. The incubation times were 24 hours, 48 hours, and 72 hours. The Nerium oleander extract Anvirzel™ (a hot water extract of oleander obtained from Salud Integral, Honduras) was tested in concentrations ranging from 0.01 ng/mL to 10 ng/mL.
(§3) Cells were detached by trypsinization (Trypsin-0.25% EDTA, Invitrogen, 25200-072) during the logarithmic phase of culture growth and plated in 96-well plates (18.000 cells/well) (Corning, Costar 359) in a final volume of 200 μl of medium per well. […] The absorbance was measured after 24 hours, 48 hours, and 72 hours of incubation.
(§4) For the Methyl-Tetrazolium assay, the dye (Sigma, M2128; 5 mg/mL, diluted in phosphate-buffered saline) was added to each well and plates were incubated for 3 hours at 37° C. After the end of the incubation period, the medium was discarded and the cells were rinsed with phosphate-buffered saline. Finally, the formazan crystals were dissolved in dimethylsulphoxide (Sigma, D4540).
(§5) The optical density of each plate was measured on a μQuant spectrophotometer and the data were analyzed with Gen5 software (μQuant Biomolecular Spectrophotometer MQX200 and Gen5™ Microplate Data Collection & Analysis software, BioTek® Instruments. Inc, April 2008). Absorbance was measured at 570 nm for all assays and a second wavelength was measured in order to subtract noise. For the Methyl-Tetrazolium assay this second wavelength was 630 nm and for the Sulforhodamine B and Crystal Violet assays it was 690 nm.

[2] = test system: MDA-MB 231 (human breast cancer); assay: Methyl-Tetrazolium viability assay, MDA-MB 231; details: for MTT 24 h / MTT 48 h / MTT 72 h: Run 3 average
Source text: (§6) Three different viability assays were chosen to complement each other and yielded results dependent on concentration and cell line: the Methyl Tetrazolium dye assay, the Sulforhodamine B fluorescent dye assay, and the Crystal Violet dye assay.
as §1, §2, §3, §4, §5

[3] = test system: T47D (human breast cancer); assay: Sulforhodamine B viability assay, T47D; parameters: key: absorbance (optical density) at 570 nm, second wavelength subtracted
Source text: as §6
The Sulforhodamine B and Crystal Violet assays provide information about protein and were used to complement the Methyl-Tetrazolium dye assay. […] It is used for the quantification of cellular proteins of cultured cells. The assay using Crystal Violet, a dye that binds electrostatically to proteins and stains DNA, provides a reliable, simple assay for measuring viability of cells.
as §2, §3
For the Sulforhodamine B assay, 96-well plates were fixed by 10% trichloroacetic acid (Fluka, 91228) and were incubated at 4° C. for 1 hour. Afterwards, plates were rinsed with water and cells were stained with 0.4% Sulforhodamine B (Sigma, 341738), dissolved in 1% acetic acid (Carlo Ebra, 401422) for 15 minutes at room temperature (RT). The unbound stain was washed twice with 1% acetic acid. Finally, 10 mM Tris Buffer pH 10.5 (Sigma, T6791) was added to dissolve the dye.
as §5

## N.N.[Cl][Pt][Cl] [cisplatin]
[1]; PC3 Run 1, 24 h, 0.1 μg/ml CDDP
  MTT Average: 0.137
[1]; PC3 Run 1, 24 h, 1 μg/ml CDDP
  MTT Average: 0.049
[1]; PC3 Run 1, 24 h, 10 μg/ml CDDP
  MTT Average: 0.091
[1]; PC3 Run 1, 24 h, 100 μg/ml CDDP
  MTT Average: 0.053
[1]; PC3 Run 1, 48 h, 0.1 μg/ml CDDP
  MTT Average: 0.162
[1]; PC3 Run 1, 48 h, 1 μg/ml CDDP
  MTT Average: 0.027
[1]; PC3 Run 1, 48 h, 10 μg/ml CDDP
  MTT Average: 0.064
[1]; PC3 Run 1, 48 h, 100 μg/ml CDDP
  MTT Average: 0.029
[1]; PC3 Run 1, 72 h, 0.1 μg/ml CDDP
  MTT Average: 0.188
[1]; PC3 Run 1, 72 h, 1 μg/ml CDDP
  MTT Average: 0.034
[1]; PC3 Run 1, 72 h, 10 μg/ml CDDP
  MTT Average: 0.044
[1]; PC3 Run 1, 72 h, 100 μg/ml CDDP
  MTT Average: 0.029
[1]; PC3 Run 2, 24 h, 0.1 μg/ml CDDP
  MTT Average: 0.072
[1]; PC3 Run 2, 24 h, 1 μg/ml CDDP
  MTT Average: 0.04
[1]; PC3 Run 2, 24 h, 10 μg/ml CDDP
  MTT Average: 0.079
[1]; PC3 Run 2, 24 h, 100 μg/ml CDDP
  MTT Average: 0.052
[1]; PC3 Run 2, 48 h, 0.1 μg/ml CDDP
  MTT Average: 0.195
[1]; PC3 Run 2, 48 h, 1 μg/ml CDDP
  MTT Average: 0.051
[1]; PC3 Run 2, 48 h, 10 μg/ml CDDP
  MTT Average: 0.074
[1]; PC3 Run 2, 48 h, 100 μg/ml CDDP
  MTT Average: 0.047
[1]; PC3 Run 2, 72 h, 0.1 μg/ml CDDP
  MTT Average: 0.223
[1]; PC3 Run 2, 72 h, 1 μg/ml CDDP
  MTT Average: 0.039
[1]; PC3 Run 2, 72 h, 10 μg/ml CDDP
  MTT Average: 0.068
[1]; PC3 Run 2, 72 h, 100 μg/ml CDDP
  MTT Average: 0.037
[1]; PC3 Run 3, 24 h, 0.1 μg/ml CDDP
  MTT Average: 0.088
[1]; PC3 Run 3, 24 h, 1 μg/ml CDDP
  MTT Average: 0.041
[1]; PC3 Run 3, 24 h, 10 μg/ml CDDP
  MTT Average: 0.096
[1]; PC3 Run 3, 24 h, 100 μg/ml CDDP
  MTT Average: 0.053
[1]; PC3 Run 3, 48 h, 1 μg/ml CDDP
  MTT Average: 0.033
[1]; PC3 Run 3, 48 h, 10 μg/ml CDDP
  MTT Average: 0.062
[1]; PC3 Run 3, 48 h, 100 μg/ml CDDP
  MTT Average: 0.03
[1]; PC3 Run 3, 72 h, 0.1 μg/ml CDDP
  MTT Average: 0.151
[1]; PC3 Run 3, 72 h, 1 μg/ml CDDP
  MTT Average: 0.027
[1]; PC3 Run 3, 72 h, 10 μg/ml CDDP
  MTT Average: 0.057
[1]; PC3 Run 3, 72 h, 100 μg/ml CDDP
  MTT Average: 0.028
[2]; Run 1, 0.1 μg/ml CDDP
  MTT 24 h Average: 0.019
  MTT 48 h Average: 0.002
  MTT 72 h Average: 0.04
[2]; Run 1, 1 μg/ml CDDP
  MTT 24 h Average: 0.007
  MTT 48 h Average: 0.004
  MTT 72 h Average: 0.006
[2]; Run 1, 10 μg/ml CDDP
  MTT 24 h Average: 0.015
  MTT 48 h Average: 0.007
  MTT 72 h Average: 0.015
[2]; Run 1, 100 μg/ml CDDP
  MTT 24 h Average: 0.008
  MTT 48 h Average: 0.008
  MTT 72 h Average: 0.006
[2]; Run 2, 0.1 μg/ml CDDP
  MTT 24 h Average: 0.044
  MTT 48 h Average: 0.063
  MTT 72 h Average: 0.106
[2]; Run 2, 1 μg/ml CDDP
  MTT 24 h Average: 0.009
  MTT 48 h Average: 0.007
  MTT 72 h Average: 0.005
[2]; Run 2, 10 μg/ml CDDP
  MTT 24 h Average: 0.039
  MTT 48 h Average: 0.049
  MTT 72 h Average: 0.07
[2]; Run 2, 100 μg/ml CDDP
  MTT 24 h Average: 0.008
  MTT 48 h Average: 0.006
  MTT 72 h Average: 0.002
[2]; 0.1 μg/ml CDDP
  MTT 24 h: 0.083
  MTT 48 h: 0.035
  MTT 72 h: 0.046
[2]; 1 μg/ml CDDP
  MTT 24 h: 0.013
  MTT 48 h: 0.008
  MTT 72 h: 0.008
[2]; 10 μg/ml CDDP
  MTT 24 h: 0.046
  MTT 48 h: 0.057
  MTT 72 h: 0.068
[2]; 100 μg/ml CDDP
  MTT 24 h: 0.012
  MTT 48 h: 0.012
  MTT 72 h: 0.01
[3]; T47D Run 1, 24 h, 1 μg/ml CDDP
  SRB Average: 1.786
[3]; T47D Run 1, 24 h, 10 μg/ml CDDP
  SRB Average: 1.586
[3]; T47D Run 1, 24 h, 100 μg/ml CDDP
  SRB Average: 1.494
[3]; T47D Run 1, 48 h, 0.1 μg/ml CDDP
  SRB Average: 2.029
[3]; T47D Run 1, 48 h, 1 μg/ml CDDP
  SRB Average: 1.913
[3]; T47D Run 1, 48 h, 10 μg/ml CDDP
  SRB Average: 1.768
[3]; T47D Run 1, 72 h, 0.1 μg/ml CDDP
  SRB Average: 2.34
[3]; T47D Run 1, 72 h, 1 μg/ml CDDP
  SRB Average: 1.863
[3]; T47D Run 1, 72 h, 10 μg/ml CDDP
  SRB Average: 1.428
[3]; T47D Run 2, 24 h, 0.1 μg/ml CDDP
  SRB Average: 2.474
[3]; T47D Run 2, 24 h, 1 μg/ml CDDP
  SRB Average: 1.601
[3]; T47D Run 2, 24 h, 10 μg/ml CDDP
  SRB Average: 1.417
[3]; T47D Run 2, 24 h, 100 μg/ml CDDP
  SRB Average: 1.102
[3]; T47D Run 2, 48 h, 0.1 μg/ml CDDP
  SRB Average: 2.112
[3]; T47D Run 2, 48 h, 1 μg/ml CDDP
  SRB Average: 1.969
[3]; T47D Run 2, 48 h, 10 μg/ml CDDP
  SRB Average: 1.988
[3]; T47D Run 2, 48 h, 100 μg/ml CDDP
  SRB Average: 1.708
[3]; T47D Run 2, 72 h, 0.1 μg/ml CDDP
  SRB Average: 1.969
[3]; T47D Run 2, 72 h, 1 μg/ml CDDP
  SRB Average: 1.201
[3]; T47D Run 2, 72 h, 10 μg/ml CDDP
  SRB Average: 1.567
[3]; T47D Run 2, 72 h, 100 μg/ml CDDP
  SRB Average: 1.513
[3]; T47D Run 3, 24 h, 0.1 μg/ml CDDP
  SRB Average: 1.615
[3]; T47D Run 3, 24 h, 1 μg/ml CDDP
  SRB Average: 1.846
[3]; T47D Run 3, 24 h, 10 μg/ml CDDP
  SRB Average: 1.368
[3]; T47D Run 3, 24 h, 100 μg/ml CDDP
  SRB Average: 1.34
[3]; T47D Run 3, 48 h, 0.1 μg/ml CDDP
  SRB Average: 2.223
[3]; T47D Run 3, 48 h, 1 μg/ml CDDP
  SRB Average: 2.03
[3]; T47D Run 3, 48 h, 10 μg/ml CDDP
  SRB Average: 1.974
[3]; T47D Run 3, 48 h, 100 μg/ml CDDP
  SRB Average: 1.758
[3]; T47D Run 3, 72 h, 0.1 μg/ml CDDP
  SRB Average: 2.044
[3]; T47D Run 3, 72 h, 1 μg/ml CDDP
  SRB Average: 1.344
[3]; T47D Run 3, 72 h, 10 μg/ml CDDP
  SRB Average: 1.461
